Assay [1] in a line: Binding affinity to 5'-Biotin-GGTTAGAGTTAGGTTTTCCTAACTCTAACC-3' (unknown origin) in HBS-EP buffer at pH 7.4 at 25 degC by SPR analysis. In general terms: Surface plasmon resonance follows binding to a sensor surface in real time, without labels.
The nature of assay [2]: Binding affinity to 5'-GGTTAGAGTTAGG-3'/3'-CCAATCTCAATCC-5' (unknown origin) assessed as change in melting temperature at pH 7 by UV-Vis spectrophotometry.
Assay [3] in a line: Selectivity ratio of KD for 5'-Biotin-GGTTAAGGTTAGGTTTTCCTAACCTTAACC-3' (unknown origin) to KD for human telomeric sequence.
Assay [4] in a line: Binding affinity to human telomeric sequence in HBS-EP buffer at pH 7.4 at 25 degC by SPR analysis.
A short description of assay [5]: Binding affinity to 5'-GGTTAAGGTTAGG-3'/3'-CCAATTCCAATCC-5' (unknown origin) assessed as change in melting temperature at pH 7 by UV-Vis spectrophotometry.
For assay [6], the species on record is Homo sapiens. The assay is described as follows: Binding affinity to human telomeric sequence assessed as change in melting temperature at pH 7 by UV-Vis spectrophotometry.
Assay [7] is described as follows: Binding affinity to 5'-Biotin-GGTTAAGGTTAGGTTTTCCTAACCTTAACC-3' (unknown origin) in HBS-EP buffer at pH 7.4 at 25 degC by SPR analysis.
The nature of assay [8]: Selectivity ratio of KD for 5'-Biotin-GGTTAGAGTTAGGTTTTCCTAACTCTAACC-3' (unknown origin) to KD for human telomeric sequence.

Drawing on ChEMBL document CHEMBL3399975, “Rational design of specific binding hairpin Py-Im polyamides targeting human telomere sequences” (Bioorg Med Chem, 2015), this text covers Kd, ΔTm and Ratio for 4 compounds.

A word on the Kd: it is the equilibrium constant for the complex coming apart. A higher Kd goes with lower affinity. Usually ΔTm stands for the change in melting temperature against a reference sample. Take `CN(CCCN)CCCNC(=O)CCNC(=O)c1nc(NC(=O)c2cc(NC(=O)c3cc(NC(=O)c4cc(NC(=O)[C@H](N)CCNC(=O)c5cc(NC(=O)c6nc(NC(=O)c7nccn7C)cn6C)cn5C)cn4C)cn3C)cn2C)cn1C`: the Kd in assay [1] amounted to 30.4 nM; in assay [4], 1.76 nM; in assay [7] it was 0.627 nM. For the same compound, the figures for the ΔTm in assay [2], in assay [5] and in assay [6] were 22.4 °C, 29.3 °C and 27.8 °C, respectively. Also, the values for the Ratio in assay [3] and in assay [8] were 0.36 and 17.3, respectively.

In the case of `CN(CCCNC(=O)CCNC(=O)c1nc(NC(=O)c2cc(NC(=O)c3cc(NC(=O)c4cc(NC(=O)[C@@H](CCNC(=O)c5cc(NC(=O)c6nc(NC(=O)c7nccn7C)cn6C)cn5C)NC(=O)COCCOCCNC(=O)c5nc(NC(=O)c6cc(NC(=O)c7cc(NC(=O)c8cc(NC(=O)[C@H](N)CCNC(=O)c9cc(NC(=O)c%10nc(NC(=O)c%11nccn%11C)cn%10C)cn9C)cn8C)cn7C)cn6C)cn5C)cn4C)cn3C)cn2C)cn1C)CCCNS(=O)(=O)c1ccc(C2=c3cc4c5c(c3Oc3c2cc2c6c3CCCN6CCC2)CCC[N+]=5CCC4)c(S(=O)(=O)[O-])c1`, the Kd in assay [4] worked out at 0.93 nM.

In the case of `CN(CCCN)CCCNC(=O)CCNC(=O)c1cc(NC(=O)c2cc(NC(=O)c3cc(NC(=O)c4cc(NC(=O)[C@H](N)CCNC(=O)c5cc(NC(=O)c6nc(NC(=O)c7nccn7C)cn6C)cn5C)cn4C)cn3C)cn2C)cn1C`, the Kd in assay [1] came to 10.6 nM; in assay [4] it was 0.431 nM; in assay [7], 0.00561 nM. Also, the ΔTm in assay [2] worked out at 21.6 °C; in assay [5] it was 31.6 °C; in assay [6], 27.4 °C. In addition, the figures for the Ratio in assay [3] and in assay [8] were 0.013 and 24.6, respectively.

On to `CN(CCCN)CCCNC(=O)CCNC(=O)c1cc(NC(=O)c2cc(NC(=O)c3cc(NC(=O)c4cc(NC(=O)[C@H](N)CCNC(=O)c5cc(NC(=O)c6nc(NC(=O)c7nc(NC(=O)c8nccn8C)cn7C)cn6C)cn5C)cn4C)cn3C)cn2C)cn1C`, for which the values for the Kd in assay [1], in assay [4] and in assay [7] were 51.1 nM, 1.56 nM and 20.7 nM, respectively. In addition, the ΔTm was determined as 18.3 °C in assay [2], 24.8 °C in assay [5] and 27.7 °C in assay [6]. The results for the Ratio in assay [3] and in assay [8] were 13.3 and 32.8, respectively.
